Measured values reported in the supplement of paper PMC10307832.

Columns and labels:
Experiment in all cases: relative viability (nuclei count vs DMSO), 5 days (fraction); higher = more cells survive
NCI-H2087 = test system: NCI-H2087
In short: (§1)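 Lung cancer cell lines in 1536-well plates got either a single drug or a fixed anchor-drug dose together with five library-drug doses (not always all listed) in √10 steps, by pin tool, on the day after seeding. Nuclei were counted after 5 days, and relative viability is the treated-to-vehicle ratio of nuclei counts. Values are medians of duplicate plates.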

BEN = test system: BEN
In short: as §1

HCC-44 = test system: HCC-44
In short: as §1

NCI-H596 = test system: NCI-H596
In short: as §1

LCLC-103H = test system: LCLC-103H
In short: as §1

NCI-H1993 = test system: NCI-H1993
In short: as §1

HARA = test system: HARA
In short: as §1

EMC-BAC-2 = test system: EMC-BAC-2
In short: as §1

NCI-H2126 = test system: NCI-H2126
In short: as §1

LOU-NH91 = test system: LOU-NH91
In short: as §1

NCI-H647 = test system: NCI-H647
In short: as §1

Which relative viability (NCI-H2087; first compound 0.01 µM) does the source give for `O=c1cc(N2CCOCC2)oc2c(-c3cccc4c3sc3ccccc34)cccc12` + N=C(N)NC(=N)NCCc1ccccc1 [Phenformin] (partner 250 µM) here?
Its relative viability is 0.423.

And the relative viability (NCI-H2087; first compound 0.03162 µM)?
The relative viability was 0.535.

And the relative viability (NCI-H2087; first compound 0.1 µM)?
The relative viability was 0.45.

And the relative viability (NCI-H2087; first compound 0.3162 µM)?
The relative viability was 0.46.

And the relative viability (NCI-H2087; first compound 1 µM)?
The relative viability was 0.431.

And the relative viability (BEN; first compound 0.01 µM)?
Its relative viability is 0.241.

What about the relative viability (BEN; first compound 0.03162 µM) of the same compound?
Its relative viability is 0.305.

And the relative viability (BEN; first compound 0.1 µM)?
Its relative viability is 0.27.

And the relative viability (BEN; first compound 0.3162 µM)?
The relative viability was 0.271.

What about the relative viability (BEN; first compound 1 µM) of the same compound?
The relative viability was 0.292.

What about the relative viability (HCC-44; first compound 0.01 µM) of the same compound?
The relative viability was 0.249.

And the relative viability (HCC-44; first compound 0.03162 µM)?
Its relative viability is 0.187.

And the relative viability (HCC-44; first compound 0.1 µM)?
The relative viability was 0.134.

What about the relative viability (HCC-44; first compound 0.3162 µM) of the same compound?
Its relative viability is 0.366.

What about the relative viability (HCC-44; first compound 1 µM) of the same compound?
The relative viability was 0.139.

What about the relative viability (NCI-H596; first compound 0.01 µM) of the same compound?
The relative viability was 0.73.

And the relative viability (NCI-H596; first compound 0.03162 µM)?
The relative viability was 0.837.

What about the relative viability (NCI-H596; first compound 0.1 µM) of the same compound?
Its relative viability is 0.717.

And the relative viability (NCI-H596; first compound 0.3162 µM)?
The relative viability was 0.743.

What about the relative viability (NCI-H596; first compound 1 µM) of the same compound?
Its relative viability is 0.76.

And the relative viability (LCLC-103H; first compound 0.01 µM)?
The relative viability was 0.317.

What about the relative viability (LCLC-103H; first compound 0.03162 µM) of the same compound?
Its relative viability is 0.31.

And the relative viability (LCLC-103H; first compound 0.1 µM)?
The relative viability was 0.331.

What about the relative viability (LCLC-103H; first compound 0.3162 µM) of the same compound?
Its relative viability is 0.377.

What about the relative viability (LCLC-103H; first compound 1 µM) of the same compound?
The relative viability was 0.341.

And the relative viability (NCI-H1993; first compound 0.01 µM)?
The relative viability was 0.61.

What about the relative viability (NCI-H1993; first compound 0.03162 µM) of the same compound?
The relative viability was 0.508.

What about the relative viability (NCI-H1993; first compound 0.1 µM) of the same compound?
Its relative viability is 0.506.

And the relative viability (NCI-H1993; first compound 0.3162 µM)?
Its relative viability is 0.483.

What about the relative viability (NCI-H1993; first compound 1 µM) of the same compound?
Its relative viability is 0.556.

What about the relative viability (HARA; first compound 0.01 µM) of the same compound?
Its relative viability is 0.414.

What about the relative viability (HARA; first compound 0.03162 µM) of the same compound?
The relative viability was 0.472.

What about the relative viability (HARA; first compound 0.1 µM) of the same compound?
The relative viability was 0.416.

What about the relative viability (HARA; first compound 0.3162 µM) of the same compound?
The relative viability was 0.502.

What about the relative viability (HARA; first compound 1 µM) of the same compound?
The relative viability was 0.482.

And the relative viability (EMC-BAC-2; first compound 0.01 µM)?
The relative viability was 0.423.

And the relative viability (EMC-BAC-2; first compound 0.03162 µM)?
Its relative viability is 0.57.

And the relative viability (EMC-BAC-2; first compound 0.1 µM)?
Its relative viability is 0.55.

What about the relative viability (EMC-BAC-2; first compound 0.3162 µM) of the same compound?
Its relative viability is 0.556.

What about the relative viability (EMC-BAC-2; first compound 1 µM) of the same compound?
Its relative viability is 0.564.

And the relative viability (NCI-H2126; first compound 0.01 µM)?
The relative viability was 0.513.

And the relative viability (NCI-H2126; first compound 0.03162 µM)?
Its relative viability is 0.547.

And the relative viability (NCI-H2126; first compound 0.1 µM)?
Its relative viability is 0.53.

And the relative viability (NCI-H2126; first compound 0.3162 µM)?
Its relative viability is 0.554.

What about the relative viability (NCI-H2126; first compound 1 µM) of the same compound?
Its relative viability is 0.515.

And the relative viability (LOU-NH91; first compound 0.01 µM)?
Its relative viability is 0.58.

And the relative viability (LOU-NH91; first compound 0.03162 µM)?
The relative viability was 0.688.

And the relative viability (LOU-NH91; first compound 0.1 µM)?
The relative viability was 0.689.

What about the relative viability (LOU-NH91; first compound 0.3162 µM) of the same compound?
Its relative viability is 0.791.

What about the relative viability (LOU-NH91; first compound 1 µM) of the same compound?
The relative viability was 0.618.

And the relative viability (NCI-H647; first compound 0.01 µM)?
The relative viability was 0.547.

What about the relative viability (NCI-H647; first compound 0.03162 µM) of the same compound?
The relative viability was 0.643.

And the relative viability (NCI-H647; first compound 0.1 µM)?
Its relative viability is 0.319.

What about the relative viability (NCI-H647; first compound 0.3162 µM) of the same compound?
The relative viability was 0.526.
